This note sets out measurements from patent US12030929B2, “Fusobacterium nucleatum amyloid-like FadA for diagnosis and treatment of Fn-mediated pathogenesis” (The Trustees of Columbia University in the City of New York, priority 2021, dated 2024).

Series [1] relates to Fn 12230. Kind of series: Biofilm assay: Fn biofilm formation on detergent-resistant Fn pellets. The following applies: 0, 10 or 50 μg/ml Congo Red; 48 or 72 hours; crystal violet OD550. The class given is cell-based, Fusobacterium nucleatum. The procedure:
FIG. 4A-4F. Functional analysis of amyloid-like FadA in vitro. 4A. Facilitation of Fn biofilm formation by amyloid-like FadA. An aliquot of 10 μg each of the detergent-resistant pellets prepared from of Fn 12230 (wild type), US1 (ΔfadA) and lam, or PBS, was added to the 96-well plates and incubated at 37° C. for 5 hours. Fresh culture of Fn 12230 was diluted to OD600 of 0.2 and an aliquot of 200 μl was added to the wells, followed by incubation at 37° C. for 48 or 72 hours under anaerobic conditions. Following washes, the biofilms were incubated with 100 μl 0.1% crystal violet for 15 min. After washing, 100 μl 95% ethanol was added to each well and the optical density at OD550 was measured in a microplate reader. The results shown are the average of four experiments each performed in duplicate. A representative image following 72 hours of incubation is shown in the top panel. **p<0.01. ***p<0.001 (t-test). 4B. Inhibition of biofilm formation mediated by detergent-resistant Fn pellets by Congo Red. An aliquot of 10 μg detergent-resistant pellets prepared from Fn 12230 (pellet) was added in 96-well plates in the presence of 0, 10 or 50 μg/ml Congo Red (CR), followed by addition of Fn 12230 and incubated as described above. The results shown are the average of four experiments each performed in duplicate. […]

In series [2] the test system is Fn 12230. Kind of series: Effects of Congo Red on Fn viability (OD600 and CFU). Particulars: incubation 48 or 72 hrs. The class given is cell-based, Fusobacterium nucleatum. The procedure:
FIG. 10A-10B. 10A. Schematic illustration of preparation of detergent-resistant bacterial pellets and its use as scaffold for biofilm growth. 10B. Effects of Congo Red on Fn viability. Fn 12230 was incubated in PBS (top row), 10 mg/ml Congo Red (10 CR), or 50 mg/ml Congo Red (50 CR) for 48 hrs (left panel) or 72 hrs (right panel), followed by measurement of OD600 (OD) and viable counts (CFU).

For the compound `Nc1c(/N=N/c2ccc(-c3ccc(/N=N/c4cc(S(=O)(=O)O)c5ccccc5c4N)cc3)cc2)cc(S(=O)(=O)O)c2ccccc12` [Congo Red], the “biofilm formation mediated by detergent-resistant Fn pellets” value in the series on Fn 12230 [1] is given as “inhibited biofilm formation in a dose-dependent manner”. The “viability of Fn” value in the series with Fn 12230 [2] was “without affecting the viability of Fn”.
